Measurements: patent US9777003B2, “Tricyclic heterocycles as bet protein inhibitors” (Incyte Corporation, priority 2013, dated 2017)
Structures can show the parent of a compound that is named as a salt. Where two headings read alike, the source gives them in different places.

Legend:
[1] = tested on: KMS.12.BM cells; experiment: KMS.12.BM cell viability assay (Cell Titer-GLO, ATP quantitation); assay type: cell-based; conditions: KMS.12.BM human myeloma cells, 3 days, concentration required for 50% cell death, read-out: KMS cellular IC50
Method: KMS.12.BM cell line (human myeloma) was purchased from JCRB (Osaka, Japan) and maintained in RPMI with 10% FBS culture medium. To measure the cytotoxic activity of the compounds through ATP quantitation, the KMS.12.BM cells are plated in the RPMI culture medium at 5000 cells/well/per 100 μL into a 96-well polystyrene clear black tissue culture plate (Greiner-bio-one through VWR, NJ), in the presence or absence of a concentration range of test compounds. After 3 days, […] Cell Titer-GLO Luminescent (Promega, Madison, Wis.) cell culture agent is added to each well for 10 minutes at room temperature to stabilize the luminescent signal. This determines the number of viable cells in culture based on quantitation of the ATP present, which signals the presence of metabolically active cells. Luminescence is measured with the Top Count 384 (Packard Bioscience through Perkin Elmer, Boston, Mass.). […] IC50 data for the Examples is presented in Table 4 as determined by Assay B1.

[2] = target: BRD4-BD1 (Homo sapiens (Human), UniProt O60885); experiment: BRD4 AlphaScreen assay, BRD4-BD1; assay type: binding; conditions: biotin-labeled tetra-acetylated histone H4 peptide, 75 min, room temperature, read-out: BRD4 BD-1 enzyme IC50
In short: (§1)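 Bromodomain–H4Ac4 peptide (50 nM) proximity assay; BD1 at 3.8 nM, BD2 at 20 nM. Reaction 75 min RT, bead detection 75 min in the dark, IC50 by dose-response fit.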

[3] = target: BRD4-BD2 (Homo sapiens (Human), UniProt O60885); experiment: BRD4 AlphaScreen assay, BRD4-BD2; assay type: binding; conditions: biotin-labeled tetra-acetylated histone H4 peptide, 75 min, room temperature, read-out: BRD4 BD-2 enzyme IC50
In short: as §1

Cc1cc2c(cc(N[C@@H]3CCN(C)[C@H](C)C3)c3nnc(C)n32)n1Cc1ccccc1 (mixture of isomers) [Example 224, 6-Benzyl-N-[(2S,4S)-1,2-dimethylpiperidin-4-yl]-1,7-dimethyl-6H-pyrrolo[2,3-e][1,2,4]triazolo[4,3-a]pyridin-4-amine and 6-Benzyl-N-[(2R,4R)-1,2-dimethylpiperidin-4-yl]-1,7-dimethyl-6H-pyrrolo[2,3-e][1,2,4]triazolo[4,3-a]pyridin-4-amine]
IC50 [1]: ≤ 1000 nM

Cc1cc2c(ccc3nnc(C)n32)n1Cc1cccc(CN2CCCCC2)c1 [Example 46, 1,7-dimethyl-6-[3-(piperidin-1-ylmethyl)benzyl]-6H-pyrrolo[2,3-e][1,2,4]triazolo[4,3-a]pyridine]
IC50 [2]: ≤ 100 nM
IC50 [3]: ≤ 100 nM

Cc1nnc2ccc3c(cc(C(N)=O)n3Cc3ccccc3)n12 [Example 58, 6-benzyl-1-methyl-6H-pyrrolo[2,3-e][1,2,4]triazolo[4,3-a]pyridine-7-carboxamide]
IC50 [2]: ≤ 100 nM
IC50 [3]: ≤ 100 nM

Cc1nnc2ccc3c(cc(-c4ccn(CCC#N)n4)n3Cc3ccccc3)n12 [Example 78, 3-[3-(6-benzyl-1-methyl-6H-pyrrolo[2,3-e][1,2,4]triazolo[4,3-a]pyridin-7-yl)-1H-pyrazol-1-yl]propanenitrile]
IC50 [2]: ≤ 100 nM
IC50 [3]: ≤ 100 nM

Cc1cc2c(cc(NC(N)=O)c3nnc(C)n32)n1Cc1ccccc1 [Example 252, 1-(6-Benzyl-1,7-dimethyl-6H-pyrrolo[2,3-e][1,24]triazolo[4,3-a]pyridin-4-yl)urea]
IC50 [2]: ≤ 100 nM
IC50 [3]: ≤ 100 nM

CC(=O)N1CC(CC#N)(n2ccc(-c3cc4c(ccc5nnc(C)n54)n3Cc3cccc(Cl)c3)n2)C1 [Example 106, (1-acetyl-3-{3-[6-(3-chlorobenzyl)-1-methyl-6H-pyrrolo[2,3-e][1,2,4]triazolo[4,3-a]pyridin-7-yl]-1H-pyrazol-1-yl}azetidin-3-yl)acetonitrile]
IC50 [2]: ≤ 100 nM
IC50 [3]: ≤ 100 nM

Cc1nnc2ccc3c(cc(C(=O)NC4CN(C)C4)n3Cc3cccc(Cl)c3)n12 [Example 118, 6-(3-Chlorobenzyl)-1-methyl-N-(1-methylazetidin-3-yl)-6H-pyrrolo[2,3-e][1,2,4]triazolo[4,3-a]pyridine-7-carboxamide bis(trifluoroacetate) Salt]
IC50 [2]: 100 to 1000 nM
IC50 [3]: 100 to 1000 nM

Cc1cc2c(ccc3nnc(C)n32)n1Cc1cccc(O)c1 [Example 23, 3-[(1,7-dimethyl-6H-pyrrolo[2,3-e][1,2,4]triazolo[4,3-a]pyridin-6-yl)methyl]phenol]
IC50 [2]: ≤ 100 nM
IC50 [3]: ≤ 100 nM

COC(=O)Nc1cc2c(cc(C)n2Cc2ccccc2)n2c(C)nnc12 [Example 272, Methyl 6-benzyl-1,7-dimethyl-6H-pyrrolo[2,3-e][1,2,4]triazolo[4,3-a]pyridin-4-ylcarbamate]
IC50 [2]: ≤ 100 nM
IC50 [3]: ≤ 100 nM

CNC(=O)c1cc2c(ccc3nnc(C)n32)n1Cc1ccccc1 [Example 82, 6-benzyl-N,1-dimethyl-6H-pyrrolo[2,3-e][1,2,4]triazolo[4,3-a]pyridine-7-carboxamide]
IC50 [2]: ≤ 100 nM
IC50 [3]: ≤ 100 nM

Cc1cc2c(cc(NS(C)(=O)=O)c3nnc(C)n32)n1Cc1ccccc1 [Example 271, N-(6-Benzyl-1,7-dimethyl-6H-pyrrolo[2,3-e][1,2,4]triazolo[4,3-a]pyridin-4-yl)methanesulfonamide]
IC50 [2]: 100 to 1000 nM
IC50 [3]: ≤ 100 nM

Cc1nnc2ccc3c(cc(-c4ccn(CCC#N)n4)n3Cc3cccc(CN4CCC4)c3)n12 [Example 183, 3-(3-{6-[3-(Azetidin-1-ylmethyl)benzyl]-1-methyl-6H-pyrrolo[2,3-e][1,2,4]triazolo[4,3-a]pyridin-7-yl}-1H-pyrazol-1-yl)propanenitrile bis(trifluoroacetate) Salt]
IC50 [2]: ≤ 100 nM
IC50 [3]: ≤ 100 nM

Cc1cc2c(cc(Nc3ncccn3)c3nnc(C)n32)n1Cc1ccccc1 [Example 201, 6-Benzyl-1,7-dimethyl-N-pyrimidin-2-yl-6H-pyrrolo[2,3-e][1,2,4]triazolo[4,3-a]pyridin-4-amine tris(trifluoroacetate) Salt]
IC50 [2]: ≤ 100 nM
IC50 [3]: ≤ 100 nM

Cc1nnc2ccc3c(cc(-c4ccn(C5(CC#N)CN(C)C5)n4)n3Cc3ccccc3)n12 [Example 93, {3-[3-(6-benzyl-1-methyl-6H-pyrrolo[2,3-e][1,2,4]triazolo[4,3-a]pyridin-7-yl)-1H-pyrazol-1-yl]-1-methylazetidin-3-yl}acetonitrile]
IC50 [2]: ≤ 100 nM
IC50 [3]: ≤ 100 nM

Cc1cc2c(ccc3nnc(C)n32)n1Cc1ccc(Cl)cc1 [Example 10, 6-(4-chlorobenzyl)-1,7-dimethyl-6H-pyrrolo[2,3-e][1,2,4]triazolo[4,3-a]pyridine]
IC50 [2]: ≤ 100 nM
IC50 [3]: ≤ 100 nM

Cc1nnc2ccc3c(cc(C(=O)N[C@H]4C[C@H](C#N)C4)n3Cc3ccccc3)n12 [Example 100, 6-benzyl-N-(trans-3-cyanocyclobutyl)-1-methyl-6H-pyrrolo[2,3-e][1,2,4]triazolo[4,3-a]pyridine-7-carboxamide]
IC50 [2]: ≤ 100 nM
IC50 [3]: ≤ 100 nM

Cc1ccc(Cn2c(C)cc3c2ccc2nnc(C)n23)cc1 [Example 19, 1,7-dimethyl-6-(4-methylbenzyl)-6H-pyrrolo[2,3-e][1,2,4]triazolo[4,3-a]pyridine]
IC50 [2]: ≤ 100 nM
IC50 [3]: ≤ 100 nM

Cc1cc2c(cc(NCCO)c3nnc(C)n32)n1Cc1ccccc1 [Example 210, 2-[(6-Benzyl-1,7-dimethyl-6H-pyrrolo[2,3-e][1,2,4]triazolo[4,3-a]pyridin-4-yl)amino]ethanol]
IC50 [2]: ≤ 100 nM
IC50 [3]: ≤ 100 nM

COc1cccc(Cn2c(C)cc3c2ccc2nnc(C)n23)c1 [Example 22, 6-(3-methoxybenzyl)-1,7-dimethyl-6H-pyrrolo[2,3-e][1,2,4]triazolo[4,3-a]pyridine]
IC50 [2]: 100 to 1000 nM
IC50 [3]: ≤ 100 nM

Cc1cc2c(cc(NC(N)=O)c3nnc(C)n32)n1Cc1ccc(F)cc1F [Example 236, 1-(6-(2,4-Difluorobenzyl)-1,7-dimethyl-6H-pyrrolo[2,3-e][1,2,4]triazolo[4,3-a]pyridin-4-yl)urea]
IC50 [2]: ≤ 100 nM
IC50 [3]: ≤ 100 nM

Cc1nnc2ccc3c(cc(-c4cc[nH]n4)n3Cc3cccc(CN4CCC4)c3)n12 [Example 182, 6-[3-(Azetidin-1-ylmethyl)benzyl]-1-methyl-7-(1H-pyrazol-3-yl)-6H-pyrrolo[2,3-e][1,2,4]triazolo[4,3-a]pyridine tris(trifluoroacetate) Salt]
IC50 [2]: ≤ 100 nM
IC50 ([1]; 72 h): ≤ 1000 nM
IC50 [3]: ≤ 100 nM

Cc1nnc2ccc3c(cc(-c4ccn(CCC(=O)NC(C)(C)C)n4)n3Cc3cccc(Cl)c3)n12 [Example 176, N-(tert-Butyl)-3-{3-[6-(3-chlorobenzyl)-1-methyl-6H-pyrrolo[2,3-e][1,2,4]triazolo[4,3-a]pyridin-7-yl]-1H-pyrazol-1-yl}propanamide Trifluoroacetate Salt]
IC50 [2]: ≤ 100 nM
IC50 [3]: ≤ 100 nM

Cc1cc2c(ccc3nnc(C)n32)n1C(CO)c1ccccc1 (racemic) [Example 29, 2-(1,7-dimethyl-6H-pyrrolo[2,3-e][1,2,4]triazolo[4,3-a]pyridin-6-yl)-2-phenylethanol]
IC50 [2]: 100 to 1000 nM
IC50 [3]: 100 to 1000 nM

Cc1cc2c(ccc3nnc(C)n32)n1Cc1cccc(CN[C@H]2C[C@H](O)C2)c1 [Example 39, (1r,3r)-3-((3-((1,7-dimethyl-6H-pyrrolo[2,3-e][1,2,4]triazolo[4,3-a]pyridin-6-yl)methyl)benzyl)amino)cyclobutanol]
IC50 [2]: 100 to 1000 nM
IC50 [3]: ≤ 100 nM

Cc1nnc2ccc3c(cc(-c4ccn(C5CN(CCC#N)C5)n4)n3Cc3cccc(Cl)c3)n12 [Example 181, 3-(3-{3-[6-(3-Chlorobenzyl)-1-methyl-6H-pyrrolo[2,3-e][1,2,4]triazolo[4,3-a]pyridin-7-yl]-1H-pyrazol-1-yl}azetidin-1-yl)propanenitrile bis(trifluoroacetate) Salt]
IC50 [2]: ≤ 100 nM
IC50 [3]: ≤ 100 nM

COCCNc1cc2c(cc(C)n2Cc2ccccc2)n2c(C)nnc12 [Example 209, 6-Benzyl-N-(2-methoxyethyl)-1,7-dimethyl-6H-pyrrolo[2,3-e][1,2,4]triazolo[4,3-a]pyridin-4-amine]
IC50 [2]: ≤ 100 nM
IC50 [3]: ≤ 100 nM

Cc1nnc2ccc3c(cc(-c4ccn(C5COC5)n4)n3Cc3cccc(Cl)c3)n12 [Example 177, 6-(3-Chlorobenzyl)-1-methyl-7-(1-oxetan-3-yl-1H-pyrazol-3-yl)-6H-pyrrolo[2,3-e][1,2,4]triazolo[4,3-a]pyridine Trifluoroacetate Salt]
IC50 [2]: ≤ 100 nM
IC50 [3]: ≤ 100 nM

Cc1nnc2ccc3c(cc(-c4ccn(CCC(=O)NC5CCOCC5)n4)n3Cc3cccc(Cl)c3)n12 [Example 170, 3-{3-[6-(3-Chlorobenzyl)-1-methyl-6H-pyrrolo[2,3-e][1,2,4]triazolo[4,3-a]pyridin-7-yl]-1H-pyrazol-1-yl}-N-(tetrahydro-2H-pyran-4-yl)propanamide Trifluoroacetate Salt]
IC50 [2]: ≤ 100 nM
IC50 [3]: ≤ 100 nM
